Measurements published in BindingDB's records for doi:10.1021/acsmedchemlett.0c00203 (University of Texas Md Anderson Cancer Center, 2020).
pIC50: −log10 of the molar value.

Assays:
[1] = Inhibition of ENO1 in wild-type human LN319 cells incubated for 5 days by crystal violet staining based spectrophotometry
[2] = Inhibition of ENO1 in overexpressed human D423 cells incubated for 5 days by crystal violet staining based spectrophotometry
[3] = Inhibition of ENO1 in wild-type human LN319 cells incubated for 5 days in presence of 21 % oxygen by crystal violet staining based spectrophotometry
[4] = Inhibition of ENO1 in wild-type human LN319 cells incubated for 5 days in presence of 1 % oxygen by crystal violet staining based spectrophotometry
[5] = Inhibition of ENO1 in overexpressed human D423 cells incubated for 5 days in presence of 21 % oxygen by crystal violet staining based spectrophotometry
[6] = Inhibition of ENO1 in overexpressed human D423 cells incubated for 5 days in presence of 1 % oxygen by crystal violet staining based spectrophotometry

SMILES	pIC50 [1]	pIC50 [2]	pIC50 [3]	pIC50 [4]	pIC50 [5]	pIC50 [6]
O=C1C(P(=O)(O)O)CCCN1O (configuration not stated)	< 4.00	< 4.00	–	–	–	–
CC(C)(C)C(=O)OCOP(=O)(OCOC(=O)C(C)(C)C)C1CCCN(O)C1=O (configuration not stated)	5.67	6.22	5.62	5.74	6.14	5.55
CC(C)(C)C(=O)OCOP(=O)(NCc1ccccc1)C1CCCN(O)C1=O (configuration not stated)	5.40	5.40	–	–	–	–
CC(=O)ON1CCCC(P(=O)(NCc2ccccc2)OCc2ccc([N+](=O)[O-])o2)C1=O (configuration not stated)	–	–	4.68	–	4.59	5.24
Cn1c(COP(=O)(NCCBr)NCCBr)cnc1[N+](=O)[O-] [Evofosfamide]	–	–	5.32	6.05	5.59	6.52
